Results from ChEMBL document CHEMBL1143035, “Synthesis, antifungal and haemolytic activity of a series of bis(pyridinium)alkanes” (Bioorg Med Chem, 2007).
Values after ≈ are worked out from the molar mass of the structure shown. Structures can show the parent of a compound that is named as a salt.

Key:
[1] = test system: Candida albicans; assay: Antifungal activity against Candida albicans ATCC 10231; assay type: functional
[2] = test system: Cryptococcus neoformans; assay: Antifungal activity against Cryptococcus neoformans ATCC 90112; assay type: functional
[3] = Cytotoxicity against human erythrocytes assessed as hemolytic activity at 500 uM; assay type: cell-based; details: erythrocyte
[4] = biological target: T1, Phospholipase B (Cryptococcus neoformans) (UniProt Q9P8P2); assay: Inhibition of phospholipase B activity of PLB1 in Cryptococcus neoformans var. grubii H99 assessed as loss of 1,2-di[1-14C]palmitoyl phosphatidylcholine at 250 uM
T1 sequence (whole entry): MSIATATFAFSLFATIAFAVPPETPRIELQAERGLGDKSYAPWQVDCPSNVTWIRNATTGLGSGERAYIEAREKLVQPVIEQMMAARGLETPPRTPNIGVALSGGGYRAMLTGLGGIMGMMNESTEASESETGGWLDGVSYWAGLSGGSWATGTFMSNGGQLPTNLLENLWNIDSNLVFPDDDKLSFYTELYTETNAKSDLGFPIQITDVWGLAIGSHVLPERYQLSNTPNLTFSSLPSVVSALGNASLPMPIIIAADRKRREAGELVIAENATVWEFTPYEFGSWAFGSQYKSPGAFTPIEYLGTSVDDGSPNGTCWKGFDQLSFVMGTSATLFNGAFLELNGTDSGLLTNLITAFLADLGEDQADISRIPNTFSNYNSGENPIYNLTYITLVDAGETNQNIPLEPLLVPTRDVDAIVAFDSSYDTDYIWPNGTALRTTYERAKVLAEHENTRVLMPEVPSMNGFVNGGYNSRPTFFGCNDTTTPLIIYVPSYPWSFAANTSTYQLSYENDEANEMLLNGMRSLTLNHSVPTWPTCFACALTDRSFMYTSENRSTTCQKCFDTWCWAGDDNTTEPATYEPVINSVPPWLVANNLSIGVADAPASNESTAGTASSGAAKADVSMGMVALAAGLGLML

[5] = test system: Fusarium solani; assay: Antifungal activity against Fusarium solani 04-132-4207; assay type: functional
[6] = test system: Scedosporium boydii; assay: Antifungal activity against Scedosporium apiospermum 1-003-056; assay type: functional
[7] = test system: Aspergillus terreus; assay: Antifungal activity against Aspergillus terreus 03-232-378; assay type: functional
[8] = test system: Aspergillus flavus; assay: Antifungal activity against Aspergillus flavus ATCC 204 304; assay type: functional
[9] = test system: Lomentospora prolificans; assay: Antifungal activity against Scedosporium prolificans 1-003-040; assay type: functional
[10] = biological target: T1, Phospholipase B (Cryptococcus neoformans); assay: Inhibition of lysophospholipase activity of PLB1 in Cryptococcus neoformans var. grubii H99 assessed as loss of 1-[14C]palmitoyl lyso phosphatidylcholine at 25 uM
[11] = biological target: T1, Phospholipase B (Cryptococcus neoformans); assay: Inhibition of lysophospholipase activity of PLB1 in Cryptococcus neoformans var. grubii H99 assessed as loss of 1-[14C]palmitoyl lyso phosphatidylcholine at 2.5 uM
[12] = Cytotoxicity against human erythrocytes assessed as hemolytic activity at 50 uM; assay type: cell-based, Erythrocyte; details: read-out: Activity
[13] = biological target: T1, Phospholipase B (Cryptococcus neoformans); assay: Inhibition of lysophospholipase activity of PLB1 in Cryptococcus neoformans var. grubii H99 assessed as loss of 1-[14C]palmitoyl lyso phosphatidylcholine at 250 uM
[14] = biological target: T1, Phospholipase B (Cryptococcus neoformans); assay: Inhibition of phospholipase B activity of PLB1 in Cryptococcus neoformans var. grubii H99 assessed as loss of 1,2-di[1-14C]palmitoyl phosphatidylcholine at 0.25 uM
[15] = biological target: T1, Phospholipase B (Cryptococcus neoformans); assay: Inhibition of lysophospholipase transacylase activity of PLB1 in Cryptococcus neoformans var. grubii H99 assessed as rate of formation of 1-[14C]palmitoyl lyso phosphatidylcholine at 2.5 uM
[16] = biological target: T1, Phospholipase B (Cryptococcus neoformans); assay: Inhibition of phospholipase B activity of PLB1 in Cryptococcus neoformans var. grubii H99 assessed as loss of 1,2-di[1-14C]palmitoyl phosphatidylcholine at 25 uM
[17] = biological target: T1, Phospholipase B (Cryptococcus neoformans); assay: Inhibition of lysophospholipase transacylase activity of PLB1 in Cryptococcus neoformans var. grubii H99 assessed as rate of formation of 1-[14C]palmitoyl lyso phosphatidylcholine at 250 uM
[18] = biological target: T1, Phospholipase B (Cryptococcus neoformans); assay: Inhibition of phospholipase B activity of PLB1 in Cryptococcus neoformans var. grubii H99 assessed as loss of 1,2-di[1-14C]palmitoyl phosphatidylcholine at 2.5 uM
[19] = biological target: T1, Phospholipase B (Cryptococcus neoformans); assay: Inhibition of lysophospholipase activity of PLB1 in Cryptococcus neoformans var. grubii H99 assessed as loss of 1-[14C]palmitoyl lyso phosphatidylcholine at 0.25 uM
[20] = biological target: T1, Phospholipase B (Cryptococcus neoformans); assay: Inhibition of lysophospholipase transacylase activity of PLB1 in Cryptococcus neoformans var. grubii H99 assessed as rate of formation of 1-[14C]palmitoyl lyso phosphatidylcholine at 0.25 uM
[21] = Cytotoxicity against human erythrocytes assessed as hemolytic activity at 5 uM; assay type: cell-based, Erythrocyte; details: read-out: Activity
[22] = biological target: T1, Phospholipase B (Cryptococcus neoformans); assay: Inhibition of lysophospholipase transacylase activity of PLB1 in Cryptococcus neoformans var. grubii H99 assessed as rate of formation of 1-[14C]palmitoyl lyso phosphatidylcholine at 25 uM
[23] = test system: Aspergillus fumigatus; assay: Antifungal activity against Aspergillus fumigatus ATCC 204 305; assay type: functional

SMILES | MIC [1] [µM] | MIC [2] [µM] | Activity [3] | further results
Nc1cccc[n+]1CCCCCCCCCCCC[n+]1ccccc1N.[Br-].[Br-] | 5.5 | 5.5 | Not Active | inhibition [4]: 40%
[Br-].[Br-].c1cc[n+](CCCCCC[n+]2ccccc2)cc1 | 175 | > 350 | Not Active | 
[Br-].[Br-].c1cc[n+](CCCCCCCC[n+]2ccccc2)cc1 | 175 | > 350 | Not Active | 
C[C@@H]1[C@H](O)[C@@H](C)/C=C/C=C/C=C/C=C/C=C/C=C/C=C/[C@H](O[C@@H]2O[C@H](C)[C@@H](O)[C@H](N)[C@@H]2O)C[C@@H]2O[C@](O)(C[C@@H](O)C[C@@H](O)[C@H](O)CC[C@@H](O)C[C@@H](O)CC(=O)O[C@H]1C)C[C@H](O)[C@H]2C(=O)O [AMPHOTERICIN B] | 0.55 (≈ 0.508 µg/mL) | 0.55 (≈ 0.508 µg/mL) |  | MIC [5]: 0.28 µM (≈ 0.259 µg/mL); MIC [6]: 0.55 µM (≈ 0.508 µg/mL); MIC [7]: 1.1 µM (≈ 1.02 µg/mL); MIC [8]: 0.55 µM (≈ 0.508 µg/mL); MIC [9]: 4.4 µM (≈ 4.07 µg/mL)
[Br-].[Br-].c1cc[n+](CCCCCCCCCC[n+]2ccccc2)cc1 | 88 | 350 | Not Active | 
Cc1cc(N)c2ccccc2[n+]1CCCCCCCCCCCC[n+]1c(C)cc(N)c2ccccc21.[Cl-].[Cl-] | 22 | 88 | Not Active | 
[Br-].[Br-].c1ccc2c(c1)ccc[n+]2CCCCCCCCCC[n+]1cccc2ccccc21 | 88 | 88 | Not Active | 
Br.Br.N=c1ccn(CCCCCCCCCCCCn2ccc(=N)cc2)cc1 | 1.4 | 5.5 | Not Active | inhibition [4]: 40%
Cc1cc(N)c2ccccc2[n+]1CCCCCCCC[n+]1c(C)cc(N)c2ccccc21.[Br-].[Br-] | 5.5 | 5.5 | Not Active | 
[Br-].[Br-].c1cc[n+](CCCCCCCCCCCC[n+]2ccccc2)cc1 | 44 | 88 | Not Active | 
Cc1cc(N)c2ccccc2[n+]1CCCCCCCCCC[n+]1c(C)cc(N)c2ccccc21.[Cl-].[Cl-] [DEQUALINIUM CHLORIDE] | 5.5 | 11 | Not Active | 
Br.Br.N=c1ccn(CCCCCCCCCCn2ccc(=N)cc2)cc1 | 2.8 | 22 | Not Active | 
Nc1cc[n+](CCCCCCCCCCCCCCCC[n+]2ccc(N)cc2)cc1.[Br-].[Br-] | 1.4 | 1.4 | Not Active | inhibition [4]: 40%
[Cl-].[Cl-].c1ccc2c(c1)ccc[n+]2CCCCCCCCCCCC[n+]1cccc2ccccc21 | 22 | 11 | Not Active | 
CCCCCCCCN=c1ccn(CCCCCCCCCCn2ccc(=NCCCCCCCC)cc2)cc1 [OCTENIDINE HYDROCHLORIDE] | 1.4 | 0.7 |  | inhibition [10]: 46%; inhibition [11]: 16%; hemolysis at 50 µM [12]: 43%; inhibition [13]: 97%; inhibition [14]: 0%; inhibition [15]: 12%; inhibition [16]: 80%; inhibition [17]: 97%; inhibition [18]: 50%; inhibition [19]: 0%; inhibition [20]: 0%; hemolysis at 5 µM [21]: 9%; inhibition [22]: 43%; inhibition [4]: 100%
CN(C)c1cc[n+](CCCCCCCCCCCC[n+]2ccc(N(C)C)cc2)cc1.[Br-].[Br-] | 2.8 | 2.8 | Not Active | inhibition [4]: 40%
CNc1cc[n+](CCCCCCCCCCCC[n+]2ccc(NC)cc2)cc1.[Br-].[Br-] | 1.4 | 2.8 | Not Active | MIC [5]: 44 µM; MIC [6]: 2.8 µM; MIC [7]: 11 µM; MIC [8]: 44 µM; MIC [23]: 44 µM; MIC [9]: 2.8 µM
